# Data taken from patent publication US20180273538A1, “PYRROLO[2,3-d]PYRIMIDINE DERIVATIVES, A PROCESS FOR THEIR PREPARATION AND PHARMACEUTICAL COMPOSITIONS CONTAINING THEM” (LES LABORATOIRES SERVIER, priority 2015, published 2018).
# Assays:
# [1] = molecular target: T1, DYRK1A (Homo sapiens, UniProt Q13627); test: Kinase TR-FRET assay, DYRK1A; type: biochemical
# T1 construct: full-length human kinases from Carna Biosciences; purchased Carna Biosciences 04-130
# [2] = molecular target: T2, His-TEV-DYRK1A Kinase domain (aa127-485) (Homo sapiens, UniProt Q13627); test: Kinase ADP assay (ADP Hunter Plus); type: biochemical
# T2 construct: His-TEV-DYRK1A Kinase domain (aa127-485); His (N); TEV cleavage site (N)
# [3] = molecular target: T3, phospho-Ser520-DYRK1A (Homo sapiens, UniProt Q13627); test: Cellular DYRK1A autophosphorylation assay in U2-OS cells; type: cell-based; settings: 5 hours exposure, read-out: IC50 (μM) P-Ser520-Dyrk1A-Cell assay
# T3 construct: full-length, wild-type human DYRK1A (NM_001396) with an HA tag; expressed in transfected cells; host or cells: human U2-OS osteosarcoma cells, pcDNA3.1 plasmid
# [4] = molecular target: T4, DYRK1B (Homo sapiens, UniProt Q9Y463); test: Kinase TR-FRET assay, DYRK1B; type: biochemical
# T4 construct: full-length human kinases from Carna Biosciences; purchased Carna Biosciences 04-131
# [5] = molecular target: T5, CLK1 (Homo sapiens, UniProt P49759); test: Kinase TR-FRET assay, CLK1; type: biochemical
# T5 construct: full-length human kinases from Carna Biosciences; purchased Carna Biosciences 04-126
# T5 sequence (P49759 1-526 isoform P49759-3): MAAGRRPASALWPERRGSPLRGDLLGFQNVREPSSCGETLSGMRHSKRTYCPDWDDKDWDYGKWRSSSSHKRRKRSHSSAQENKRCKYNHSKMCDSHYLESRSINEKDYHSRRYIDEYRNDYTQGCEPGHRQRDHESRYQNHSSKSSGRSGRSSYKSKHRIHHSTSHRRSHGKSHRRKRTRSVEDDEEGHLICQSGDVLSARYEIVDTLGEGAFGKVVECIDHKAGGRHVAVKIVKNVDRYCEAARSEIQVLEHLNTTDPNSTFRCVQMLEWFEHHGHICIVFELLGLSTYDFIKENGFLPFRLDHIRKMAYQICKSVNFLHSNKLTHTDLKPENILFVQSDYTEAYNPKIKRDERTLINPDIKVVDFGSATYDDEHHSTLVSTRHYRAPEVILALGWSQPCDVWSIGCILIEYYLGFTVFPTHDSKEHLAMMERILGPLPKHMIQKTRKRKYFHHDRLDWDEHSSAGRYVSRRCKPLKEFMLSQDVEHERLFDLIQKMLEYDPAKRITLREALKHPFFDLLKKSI
# T4 sequence (Q9Y463 whole entry): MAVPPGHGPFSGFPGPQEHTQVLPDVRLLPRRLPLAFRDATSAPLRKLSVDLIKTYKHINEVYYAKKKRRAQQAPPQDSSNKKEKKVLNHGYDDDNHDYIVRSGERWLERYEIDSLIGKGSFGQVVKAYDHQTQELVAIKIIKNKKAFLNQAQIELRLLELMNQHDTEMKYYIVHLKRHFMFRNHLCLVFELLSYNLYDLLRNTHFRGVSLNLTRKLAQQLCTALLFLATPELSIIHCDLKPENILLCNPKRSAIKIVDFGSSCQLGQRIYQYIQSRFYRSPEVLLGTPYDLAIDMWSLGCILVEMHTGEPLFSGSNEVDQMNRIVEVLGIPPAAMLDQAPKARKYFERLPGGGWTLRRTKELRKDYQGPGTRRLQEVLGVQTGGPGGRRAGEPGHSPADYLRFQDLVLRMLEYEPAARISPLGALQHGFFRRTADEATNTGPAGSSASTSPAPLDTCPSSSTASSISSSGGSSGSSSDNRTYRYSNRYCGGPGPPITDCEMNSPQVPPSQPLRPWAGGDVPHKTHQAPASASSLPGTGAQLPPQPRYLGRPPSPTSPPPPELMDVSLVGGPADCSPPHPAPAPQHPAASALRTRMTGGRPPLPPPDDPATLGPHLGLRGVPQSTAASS
IC50 [1] [µM],IC50 [2] [µM],IC50 [3] [µM],IC50 [4] [µM],IC50 [5] [µM],SMILES
0.0149,0.011,0.14,0.0178,0.0328,"Cc1nc(OCc2cc(C)on2)c2c(-c3ccncc3)c[nH]c2n1 [Example 16, 2-methyl-4-[(5-methyl-1,2-oxazol-3-yl)methoxy]-5-(pyridin-4-yl)-7H-pyrrolo[2,3-d]pyrimidine]"
0.0031,0.012,0.036,0.0079,0.0177,"Cc1nc(OCc2ccc(C#N)cc2)c2c(-c3ccnc(N)c3)c[nH]c2n1 [Example 25, 4-({[5-(2-aminopyridin-4-yl)-2-methyl-7H-pyrrolo[2,3-d]pyrimidin-4-yl]oxy}methyl)benzonitrile]"
0.0215,0.01,0.0337,0.0175,0.0245,"Cc1nc(NCc2c(C)cccc2Cl)c2c(-c3ccnc(N)c3)c[nH]c2n1 [Example 58, 5-(2-aminopyridin-4-yl)-N-(2-chloro-6-methylbenzyl)-2-methyl-7H-pyrrolo[2,3-d]pyrimidin-4-amine]"
0.0062,0.01,0.0115,0.0029,0.0129,"Cc1nc(NCc2c(Cl)cccc2Cl)c2c(-c3ccnc(N)c3)c[nH]c2n1 [Example 61, 5-(2-aminopyridin-4-yl)-N-(2,6-dichlolorobenzyl)-2-methyl-7H-pyrrolo[2,3-d]pyrimidin-4-amine]"
0.0186,0.008,0.021,0.0002,0.0162,"Cc1nc(NCc2c(F)cccc2Cl)c2c(-c3ccnc(N)c3)c[nH]c2n1 [Example 62, 5-(2-aminopyridin-4-yl)-N-(2-chloro-6-fluorobenzyl)-2-methyl-7H-pyrrolo[2,3-d]pyrimidin-4-amine]"
,,,0.0074,0.0237,"Cc1nc(NCc2ncccc2F)c2c(-c3ccnc(N)c3)c[nH]c2n1 [Example 71, 5-(2-aminopyridin-4-yl)-N-[(3-fluoropyridin-2-yl)methyl]-2-methyl-7H-pyrrolo[2,3-d]pyrimidin-4-amine]"
0.0012,0.014,0.111,,0.0184,"Cc1nc(NCc2cccc(F)c2F)c2c(-c3ccnc(N)c3)c[nH]c2n1 [Example 74, 5-(2-aminopyridin-4-yl)-N-(2,3-difluorobenzyl)-2-methyl-7H-pyrrolo[2,3-d]pyrimidin-4-amine]"
0.0063,0.01,0.0672,0.0005,,"Cc1nc(N[C@@H]2CCc3ccccc32)c2c(-c3ccnc(N)c3)c[nH]c2n1 [Example 76, 5-(2-aminopyridin-4-yl)-N-[(1R)-2,3-dihydro-1H-inden-1-yl]-2-methyl-7H-pyrrolo[2,3-d]pyrimidin-4-amine]"
0.0013,0.01,0.0721,0.0145,0.0293,"Cc1nc(NCc2ncccc2C(F)(F)F)c2c(-c3ccnc(N)c3)c[nH]c2n1 [Example 78, 5-(2-aminopyridin-4-yl)-2-methyl-N-{[3-(trifluoromethyl)pyridin-2-yl]methyl}-7H-pyrrolo[2,3-d]pyrimidin-4-amine]"
0.0021,0.008,0.105,0.008,,"CCOc1ccccc1CNc1nc(C)nc2[nH]cc(-c3ccnc(N)c3)c12 [Example 79, 5-(2-aminopyridin-4-yl)-N-(2-ethoxybenzyl)-2-methyl-7H-pyrrolo[2,3-d]pyrimidin-4-amine]"
0.0059,0.004,0.0156,0.0106,,"COc1cccc(C(F)(F)F)c1CNc1nc(C)nc2[nH]cc(-c3ccnc(N)c3)c12 [Example 80, 5-(2-aminopyridin-4-yl)-N-[2-methoxy-6-(trifluoromethyl)benzyl]-2-methyl-7H-pyrrolo[2,3-d]pyrimidin-4-amine]"
0.0085,0.014,0.166,0.0141,,"Cc1nc(NCc2cccc(Cl)c2Cl)c2c(-c3ccnc(N)c3)c[nH]c2n1 [Example 81, 5-(2-aminopyridin-4-yl)-N-(2,3-dichlorbenzyl)-2-methyl-7H-pyrrolo[2,3-d]pyrimidin-4-amine]"
0.0077,0.019,0.155,0.0112,0.0378,"Cc1nc(NCc2cccc(Cl)c2C)c2c(-c3ccnc(N)c3)c[nH]c2n1 [Example 94, 5-(2-aminopyridin-4-yl)-N-(3-chloro-2-methylbenzyl)-2-methyl-7H-pyrrolo[2,3-d]pyrimidin-4-amine]"
0.0023,0.009,0.0119,0.0315,0.0151,"Cc1nc(N2CCc3ccccc3C2)c2c(-c3ccnc(N)c3)c[nH]c2n1 [Example 96, 4-[4-(3,4-dihydroisoquinolin-2(1H)-yl)-2-methyl-7H-pyrrolo[2,3-d]pyrimidin-5-yl]pyridin-2-amine]"
,0.022,0.192,,0.0241,"COc1cccnc1CNc1nc(C)nc2[nH]cc(-c3ccnc(N)c3)c12 [Example 98, 5-(2-aminopyridin-4-yl)-N-[(3-methoxypyridin-2-yl)methyl]-2-methyl-7H-pyrrolo[2,3-d]pyrimidin-4-amine]"
0.0086,0.029,0.192,0.0293,0.0549,"Cc1nc(NC2Cc3ccccc3C2)c2c(-c3ccnc(N)c3)c[nH]c2n1 [Example 99, 5-(2-aminopyridin-4-yl)-N-(2,3-dihydro-1H-inden-2-yl)-2-methyl-7H-pyrrolo[2,3-d]pyrimidin-4-amine]"
0.0081,0.015,0.105,0.0167,0.0225,"Cc1nc(N2CCC3CCCCC3C2)c2c(-c3ccnc(N)c3)c[nH]c2n1 (stereo not drawn) [Example 104, 4-[2-methyl-4-(octahydroisoquinolin-2(1H)-yl)-7H-pyrrolo[2,3-d]pyrimidin-5-yl]pyridin-2-amine]"
,0.018,0.177,,0.0171,"COc1ccccc1[C@H](C)Nc1nc(C)nc2[nH]cc(-c3ccnc(N)c3)c12 [Example 106, 5-(2-aminopyridin-4-yl)-N-[(1S)-1-(2-methoxyphenyl)ethyl]-2-methyl-7H-pyrrolo[2,3-d]pyrimidin-4-amine]"
0.0027,0.009,0.0491,0.0092,0.0283,"Cc1nc(N2CCc3sccc3C2)c2c(-c3ccnc(N)c3)c[nH]c2n1 [Example 108, 4-[4-(6,7-dihydrothieno[3,2-c]pyridin-5(4H)-yl)-2-methyl-7H-pyrrolo[2,3-d]pyrimidin-5-yl]pyridin-2-amine]"
,0.009,0.006,,0.0162,"Cc1nc(N2CCc3ccccc3C2)c2c(-c3cc(N)nc(N)c3)c[nH]c2n1 [Example 114, 4-[4-(3,4-dihydroisoquinolin-2(1H)-yl)-2-methyl-7H-pyrrolo[2,3-d]pyrimidin-5-yl]pyridine-2,6-diamine]"
0.0031,0.005,0.0185,0.0094,0.0172,"Cc1nc(NCc2c(F)cccc2F)c2c(-c3cc(N)nc(N)c3)c[nH]c2n1 [Example 115, 4-{4-[(2,6-difluorobenzyl)amino]-2-methyl-7H-pyrrolo[2,3-d]pyrimidin-5-yl}pyridine-2,6-diamine]"
,0.005,0.0009,,0.0136,"COc1cccc(F)c1CNc1nc(C)nc2[nH]cc(-c3cc(N)nc(N)c3)c12 [Example 116, 4-{4-[(2-fluoro-6-methoxybenzyl)amino]-2-methyl-7H-pyrrolo[2,3-d]pyrimidin-5-yl}pyridine-2,6-diamine]"
0.0059,0.01,0.0377,0.0093,0.0195,"COc1ccccc1[C@H](C)Nc1nc(C)nc2[nH]cc(-c3cc(N)nc(N)c3)c12 [Example 117, 4-(4-{[(1S}-1-(2-methoxyphenyl)ethyl]amino}-2-methyl-7H-pyrrolo[2,3-d]pyrimidin-5-yl)pyridine-2,6-diamine]"
,0.071,,,0.0615,"Cc1nc(NCC(F)(F)c2ccccc2)c2c(-c3ccnc(N)c3)c[nH]c2n1 [Example 123, 5-(2-aminopyridin-4-yl)-N-(2,2-difluoro-2-phenylethyl)-2-methyl-7H-pyrrolo[2,3-d]pyrimidin-4-amine]"
,0.026,0.197,,0.104,Cc1nc(-c2ccccc2)c2c(-c3ccnc(N)c3)c[nH]c2n1 [Example 163]
,0.025,0.118,,0.248,Cc1nc(COc2c(F)cccc2F)c2c(-c3ccnc(N)c3)c[nH]c2n1 [Example 166]
,0.015,0.0444,,0.042,COc1cccc(-c2nc(C)nc3[nH]cc(-c4ccnc(N)c4)c23)c1 [Example 167]
,,,0.0115,0.0425,Cc1nc(-c2ccc3c(c2)OCO3)c2c(-c3ccnc(N)c3)c[nH]c2n1 [Example 179]
,,,0.0133,0.0238,"Cc1nc(NCc2c(F)cccc2F)c2c(-c3ccnc(N)n3)c[nH]c2n1 [Example 206, 5-(2-aminopyrimidin-4-yl)-N-(2,6-difluorobenzyl)-2-methyl-7H-pyrrolo[2,3-d]pyrimidin-4-amine]"
